# Reference: patent US20180155757A1, “IDENTIFICATION OF BACTERIA THAT ARE RESISTANT TO CARBAPENEMS BY MEMBRANE IMPERVIOUSNESS” (BIOMÉRIEUX, priority 2015, published 2018)
# Where two headings read alike, the source gives them in different places.
# Legend:
# Assay in all cases: Etest MIC of indicator carbapenems on MH II agar without/with PMBN
# Assay type in all cases: cell-based
# E. aerogenes 1204048 = details: in µg/mL
# Method: (§1) The determinations of antibiotic MIC were carried out on solid culture media with the Etest® method. To do this, Etest® strips (bioMérieux, France) were used: • Etest® Imipenem IM 32, and • Etest® Ertapenem ETP 32, and also solid culture media, differing from one another by virtue of their non-inhibitory concentrations of PMBN.
# (§2) These solid culture media are prepared in Petri dishes (0=145 mm; V=50 ml) on a base of MH II Agar (Becton Dickinson®, United States), more or less supplemented with PMBN. The PMBN concentrations range from 0 up to concentrations equivalent to one fifth of the MIC of PMBN (⅕ MICPMBN).
# (§3) Using a swab and the Retro C80™ rota-plater (bioMérieux, France), the culture media were inoculated with the bacteria, originating from an inoculum of 0.5 McFarland, prepared in 0.85% NaCl solution from colonies subcultured the day before on MH II agar.
# (§4) The various Etest® strips are then deposited on the surface of the culture media. After 16 to 20 hours of incubation at 35° C., the MICS were read.
# (§5) To do this, imipenem and ertapenem were used as indicator carbapenems. Non-inhibitory concentrations of PMBN, equivalent to concentrations of one tenth ( 1/10), one eighth (⅛) and one fifth (⅕) of the MIC of PMBN, were applied.
# (§6) In the light of the MICPMBN values previously identified, very predominantly much higher than 300 μg/ml, the following standard concentrations were retained and applied to the bacterial strains to be tested: 50, 100, 150, 200 and 300 μg/ml.
# (§7) By way of indicator carbapenems according to the invention, in addition to imipenem (IM) and ertapenem (ETP), meropenem (MP) was also tested. Like the other two antibiotics, meropenem was used in the form of Etest® strips (Etest® Meropenem MP 32 from the company bioMérieux, France).
# (§8) The methods used to prepare the new culture media and to carry out the antibiotic-sensitivity tests are identical to those described above.
# K. pneumoniae 1002015 = tested on: K. pneumoniae 1002015
# Method: as §1, §2, §3, §4, §5, §6, §7, §8
# K. pneumoniae 1204034 = tested on: K. pneumoniae 1204034
# Method: as §1, §2, §3, §4, §5, §6, §7, §8
# E. aerogenes 9203076 = tested on: E. aerogenes 9203076
# Method: as §1, §2, §3, §4, §5, §6, §7, §8
# E. aerogenes 9306071 = tested on: E. aerogenes 9306071
# Method: as §1, §2, §3, §4, §5, §6, §7, §8
structure (smiles),measurement,setting,value
"C[C@@H](O)[C@H]1C(=O)N2C(C(=O)O)=C(SCCN=CN)C[C@H]12 [IM, imipenem]",MIC,"E. aerogenes 1204048; E. aerogenes 1204048 (membrane impermeability), [PMBN] 0, Table 4a",>32
same,MIC,"E. aerogenes 1204048; E. aerogenes 1204048 (membrane impermeability), [PMBN] 100, Table 4a",12
same,MIC,"E. aerogenes 1204048; E. aerogenes 1204048 (membrane impermeability), [PMBN] 200, Table 4a",6
same,MIC,"E. aerogenes 1204048; E. aerogenes 1204048 (membrane impermeability), [PMBN] 300, Table 4a",3
same,MIC,"E. aerogenes 1204048; E. aerogenes 1204048, [PMBN] 0, Table 3",16
same,MIC,"E. aerogenes 1204048; E. aerogenes 1204048, [PMBN] MIC/5",0.5
same,MIC,"E. aerogenes 1204048; E. aerogenes 1204048, [PMBN] MIC/8",1
same,MIC,"E. aerogenes 1204048; E. aerogenes 1204048, [PMBN] MIC/10",2
same,MIC,"K. pneumoniae 1002015; K. pneumoniae 1002015, [PMBN] 0, Table 3",2 µg/mL
same,MIC,"K. pneumoniae 1002015; K. pneumoniae 1002015, [PMBN] MIC/5",0.25 µg/mL
same,MIC,"K. pneumoniae 1002015; K. pneumoniae 1002015, [PMBN] MIC/8",0.25 µg/mL
same,MIC,"K. pneumoniae 1002015; K. pneumoniae 1002015, [PMBN] MIC/10",0.5 µg/mL
same,MIC,"K. pneumoniae 1002015; Klebsiella pneumoniae, 1002015, K. pneumoniae 1002015 (porin−), [PMBN] 0, Table 4, read-out: MIC",0.5 µg/mL
same,MIC,"K. pneumoniae 1002015; Klebsiella pneumoniae, 1002015, K. pneumoniae 1002015 (porin−), [PMBN] 150 μg/ml, Table 4, read-out: MIC",0.38 µg/mL
same,MIC,"K. pneumoniae 1002015; Klebsiella pneumoniae, 1002015, K. pneumoniae 1002015 (porin−), [PMBN] 200 μg/ml, Table 4, read-out: MIC",0.25 µg/mL
same,MIC,"K. pneumoniae 1204034; K. pneumoniae 1204034 (membrane impermeability), [PMBN] 0, Table 4a",3 µg/mL
same,MIC,"K. pneumoniae 1204034; K. pneumoniae 1204034 (membrane impermeability), [PMBN] 100, Table 4a",0.5 µg/mL
same,MIC,"K. pneumoniae 1204034; K. pneumoniae 1204034 (membrane impermeability), [PMBN] 200, Table 4a",0.38 µg/mL
same,MIC,"K. pneumoniae 1204034; K. pneumoniae 1204034 (membrane impermeability), [PMBN] 300, Table 4a",0.19 µg/mL
same,MIC,"K. pneumoniae 1204034; K. pneumoniae 1204034, [PMBN] 0, Table 3",2 µg/mL
same,MIC,"K. pneumoniae 1204034; K. pneumoniae 1204034, [PMBN] MIC/5",0.5 µg/mL
same,MIC,"K. pneumoniae 1204034; K. pneumoniae 1204034, [PMBN] MIC/8",0.5 µg/mL
same,MIC,"K. pneumoniae 1204034; K. pneumoniae 1204034, [PMBN] MIC/10",0.5 µg/mL
same,MIC,"K. pneumoniae 1204034; Klebsiella pneumoniae, 1204034, K. pneumoniae 1204034 (porin−), [PMBN] 0, Table 4, read-out: MIC",2 µg/mL
same,MIC,"K. pneumoniae 1204034; Klebsiella pneumoniae, 1204034, K. pneumoniae 1204034 (porin−), [PMBN] 150 μg/ml, Table 4, read-out: MIC",0.38 µg/mL
same,MIC,"K. pneumoniae 1204034; Klebsiella pneumoniae, 1204034, K. pneumoniae 1204034 (porin−), [PMBN] 200 μg/ml, Table 4, read-out: MIC",0.38 µg/mL
same,MIC,"E. aerogenes 9203076; E. aerogenes 9203076 (membrane impermeability), [PMBN] 0, Table 4a, in µg/mL",8
same,MIC,"E. aerogenes 9203076; E. aerogenes 9203076 (membrane impermeability), [PMBN] 100, Table 4a, in µg/mL",16
same,MIC,"E. aerogenes 9203076; E. aerogenes 9203076 (membrane impermeability), [PMBN] 200, Table 4a, in µg/mL",4
same,MIC,"E. aerogenes 9203076; E. aerogenes 9203076 (membrane impermeability), [PMBN] 300, Table 4a, in µg/mL",4
same,MIC,"E. aerogenes 9203076; E. aerogenes 9203076, [PMBN] 0, Table 3, in µg/mL",8
same,MIC,"E. aerogenes 9203076; E. aerogenes 9203076, [PMBN] MIC/5, in µg/mL",2
same,MIC,"E. aerogenes 9203076; E. aerogenes 9203076, [PMBN] MIC/8, in µg/mL",2
same,MIC,"E. aerogenes 9203076; E. aerogenes 9203076, [PMBN] MIC/10, in µg/mL",2
same,MIC,"E. aerogenes 9203076; Klebsiella aerogenes, 9203076, E. aerogenes 9203076 (porin−), [PMBN] 0, Table 4, read-out: MIC",6 µg/mL
same,MIC,"E. aerogenes 9203076; Klebsiella aerogenes, 9203076, E. aerogenes 9203076 (porin−), [PMBN] 150 μg/ml, Table 4, read-out: MIC",3 µg/mL
same,MIC,"E. aerogenes 9203076; Klebsiella aerogenes, 9203076, E. aerogenes 9203076 (porin−), [PMBN] 200 μg/ml, Table 4, read-out: MIC",3 µg/mL
same,MIC,"E. aerogenes 9306071; E. aerogenes 9306071 (membrane impermeability), [PMBN] 0, Table 4a",12 µg/mL
same,MIC,"E. aerogenes 9306071; E. aerogenes 9306071 (membrane impermeability), [PMBN] 100, Table 4a",6 µg/mL
same,MIC,"E. aerogenes 9306071; E. aerogenes 9306071 (membrane impermeability), [PMBN] 200, Table 4a",3 µg/mL
same,MIC,"E. aerogenes 9306071; E. aerogenes 9306071 (membrane impermeability), [PMBN] 300, Table 4a",2 µg/mL
same,MIC,"E. aerogenes 9306071; E. aerogenes 9306071, [PMBN] 0, Table 3",8 µg/mL
same,MIC,"E. aerogenes 9306071; E. aerogenes 9306071, [PMBN] MIC/5",2 µg/mL
same,MIC,"E. aerogenes 9306071; E. aerogenes 9306071, [PMBN] MIC/8",4 µg/mL
